Experiments:
human LPA1 = molecular target: T1, human LPA1 (Homo sapiens, UniProt Q92633); assay: LPA1 calcium flux assay (HLPA1 Ca Flux); assay type: cell-based; conditions: Human LPA1 expressing CHO cells, stimulated with 10 nM LPA
T1 construct: the full-length cDNA for human LPA1 was obtained by PCR of the reverse transcription reaction; expressed in transfected cells
Procedure, shortened: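 CHO cells stably expressing cloned human LPA1, serum-starved overnight and loaded with Calcium 4 dye, were preincubated 30 min at room temperature with compound. Cells were then challenged with 10 nM LPA and intracellular Ca2+ measured; IC50 values came from titration curves.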

human LPA3 = molecular target: T2, human LPA3 (Homo sapiens, UniProt Q9UBY5); assay: LPA3 calcium flux assay; assay type: cell-based; conditions: Human LPA3 expressing CHO cells, stimulated with 10 nM LPA; read-out: HLPA3 Ca Flux IC50
T2 construct: The full-length cDNA fragment for human LPA3 was obtained by PCR from the vector; expressed in transfected cells; cDNA from the Missouri S&T cDNA Resource Center
T2 sequence (Q9UBY5 1-353): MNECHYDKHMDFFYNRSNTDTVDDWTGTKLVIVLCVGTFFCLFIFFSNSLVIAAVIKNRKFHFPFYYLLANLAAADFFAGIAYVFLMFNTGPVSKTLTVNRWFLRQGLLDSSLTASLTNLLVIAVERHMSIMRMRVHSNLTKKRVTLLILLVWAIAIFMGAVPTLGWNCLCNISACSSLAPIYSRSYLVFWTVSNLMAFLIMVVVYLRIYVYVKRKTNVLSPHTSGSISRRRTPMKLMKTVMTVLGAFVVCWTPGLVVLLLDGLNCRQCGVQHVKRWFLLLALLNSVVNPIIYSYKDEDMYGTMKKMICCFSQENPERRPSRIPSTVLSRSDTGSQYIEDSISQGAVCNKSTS
Method: A vector containing the human LPA3 receptor cDNA was obtained from the Missouri S&T cDNA Resource Center (www.cdna.org). The full-length cDNA fragment for human LPA3 was obtained by PCR from the vector. The nucleotide sequence of the cloned human LPA3 was determined by sequencing and confirmed to be identical to the published human LPA3 sequence (NCBI accession number NM 012152). The cDNA was cloned into the pcDNA5/FRT expression plasmid and transfected in CHO cells using lipofectamine 2000 (Invitrogen Corp., USA). Clones stably expressing human LPA3 were selected using hygromycin and identified as cells that show Ca-influx in response to LPA.
Human LPA1 or LPA3 expressing CHO cells are seeded at 20,000-45,000 cells per well in a 96-well poly-D-lysine coated plate one or two days before the assay. Prior to the assay, the cells are washed once with PBS and then cultured in serum-free media overnight. On the day of the assay, a calcium indicator dye (Calcium 4, Molecular Devices) in assay buffer (HBSS with Ca^2+ and Mg^2+ and containing 20 mM Hepes and 0.3% fatty-acid free human serum albumin) is added to each well and incubation continued for 1 hour at 37° C. 10 μl of test compounds in 2.5% DMSO are added to the cells and incubation continued at room temperature for 30 minutes. Cells are the stimulated by the addition of 10 nM LPA and intracellular Ca^2+ measured using the Flexstation 3 (Molecular Devices). IC50s are determined using Graphpad prism analysis of drug titration curves.

T1 sequence (Q92633 whole entry): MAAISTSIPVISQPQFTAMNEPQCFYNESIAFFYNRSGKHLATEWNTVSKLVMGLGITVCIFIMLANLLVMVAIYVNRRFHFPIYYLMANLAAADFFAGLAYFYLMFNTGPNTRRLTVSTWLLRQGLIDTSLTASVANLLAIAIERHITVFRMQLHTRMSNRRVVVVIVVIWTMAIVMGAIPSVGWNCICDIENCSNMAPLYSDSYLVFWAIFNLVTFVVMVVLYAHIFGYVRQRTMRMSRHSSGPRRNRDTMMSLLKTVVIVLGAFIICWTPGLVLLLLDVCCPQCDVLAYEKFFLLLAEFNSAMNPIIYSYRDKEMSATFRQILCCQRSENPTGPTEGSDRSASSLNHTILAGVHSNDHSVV

SMILES | IC50 (human LPA1) | IC50 (human LPA3)
Cc1noc(-c2ccc(-c3ccc(C(C)C(=O)O)cc3)cc2)c1NC(=O)OC(C)c1ccccc1F (stereo not drawn) [Compound 1-74, 2-(4′-{4-[1-(2-Fluoro-phenyl)-ethoxycarbonylamino]-3-methyl-isoxazol-5-yl}-biphenyl-4-yl)-propionic acid] | < 300 nM | 1000 to 50000 nM
Cc1noc(-c2ccc(-c3ccc(C(=O)O)cc3)cc2)c1NC(=O)OC(C)c1ccccc1Cl (stereo not drawn) [Compound 1-51, 4′-{4-[1-(2-Chloro-phenyl)-ethoxycarbonylamino]-3-methyl-isoxazol-5-yl}-biphenyl-4-carboxylic acid] | < 300 nM | 1000 to 50000 nM
Cc1noc(-c2ccc(-c3ncc(C(=O)O)s3)cc2)c1NC(=O)OC(C)c1ccccc1Cl (stereo not drawn) [Compound 1-94, 2-(4-{4-[1-(2-Chloro-phenyl)-ethoxycarbonylamino]-3-methyl-isoxazol-5-yl}-phenyl)-thiazole-5-carboxylic acid] | < 300 nM | 1000 to 50000 nM
Cc1noc(-c2ccc(-c3ccc(CC#N)cc3)cc2)c1NC(=O)O[C@H](C)c1ccccc1Cl [Compound 2-2, [5-(4′-Cyanomethyl-biphenyl-4-yl)-3-methyl-isoxazol-4-yl]-carbamic acid (R)-1-(2-chloro-phenyl)-ethyl ester] | < 300 nM | 1000 to 50000 nM
Cc1noc(-c2ccc(-c3ccc(CC(=O)O)cc3)cc2)c1NC(=O)OC(C)c1cccc(F)c1F (stereo not drawn) [Compound 1-116, (4′-{4-[1-(2,3-Difluoro-phenyl)-ethoxycarbonylamino]-3-methyl-isoxazol-5-yl}-biphenyl-4-yl)-acetic acid] | < 300 nM | 1000 to 50000 nM
Cc1noc(-c2ccc(-c3ccc(CC(=O)O)cn3)cn2)c1NC(=O)O[C@H](C)c1ccccc1F [Compound 1-126, (6′-{4-[(R)-1-(2-Fluoro-phenyl)-ethoxycarbonylamino]-3-methyl-isoxazol-5-yl}-[2,3,1]bipyridinyl-5-yl)-acetic acid] | < 300 nM | 1000 to 50000 nM
Cc1noc(-c2ccc(COc3ccc(CC(=O)O)cc3)cc2)c1NC(=O)OC(C)c1ccccc1Cl (stereo not drawn) [Compound 1-100, [4-(4-{4-[1-(2-Chloro-phenyl)-ethoxycarbonylamino]-3-methyl-isoxazol-5-yl}-benzyloxy)-phenyl]-acetic acid] | < 300 nM | 1000 to 50000 nM
Cc1noc(-c2ccc(-c3cccc(C(=O)O)c3)cc2)c1NC(=O)OC(C)c1ccccc1Cl (stereo not drawn) [Compound 1-76, 4′-{4-[1-(2-Chloro-phenyl)-ethoxycarbonylamino]-3-methyl-isoxazol-5-yl}-biphenyl-3-carboxylic acid] | < 300 nM | 1000 to 50000 nM
Cc1noc(-c2ccc(-c3ccc(CC(=O)O)cc3)cc2)c1NC(=O)OC(C)c1cc(F)ccc1F (stereo not drawn) [Compound 1-119, (4′-{4-[1-(2,5-Difluoro-phenyl)-ethoxycarbonylamino]-3-methyl-isoxazol-5-yl}-biphenyl-4-yl)-acetic acid] | < 300 nM | 1000 to 50000 nM
Cc1noc(-c2ccc(COc3ccc(CC(=O)O)cc3)cc2)c1NC(=O)O[C@H](C)c1ccccc1Cl [Compound 1-103, [4-(4-{4-[(R)-1-(2-Chloro-phenyl)-ethoxycarbonylamino]-3-methyl-isoxazol-5-yl}-benzyloxy)-phenyl]-acetic acid] | < 300 nM | 1000 to 50000 nM
Cc1noc(-c2ccc(Cn3ncc(C(=O)O)c3C(F)(F)F)cc2)c1NC(=O)OC(C)c1ccccc1Cl (stereo not drawn) [Compound 1-4, 1-(4-{4-[1-(2-Chloro-phenyl)-ethoxycarbonylamino]-3-methyl-isoxazol-5-yl}-benzyl)-5-trifluoromethyl-1H-pyrazole-4-carboxylic acid] | < 300 nM | 1000 to 50000 nM
Cc1noc(-c2ccc(Sc3ccc(CC(=O)O)cc3)cc2)c1NC(=O)O[C@H](C)c1ccccc1F [Compound 1-109, [4-(4-{4-[(R)-1-(2-Fluoro-phenyl)-ethoxycarbonylamino]-3-methyl-isoxazol-5-yl}-phenylsulfanyl)-phenyl]-acetic acid] | < 300 nM | 1000 to 50000 nM
Cc1noc(-c2ccc(CS(=O)(=O)c3ccccc3CC(=O)O)cc2)c1NC(=O)OC(C)c1ccccc1Cl (stereo not drawn) [Compound 1-99, [2-(4-{4-[1-(2-Chloro-phenyl)-ethoxycarbonylamino]-3-methyl-isoxazol-5-yl}-phenylmethanesulfonyl)-phenyl]-acetic acid] | < 300 nM | 1000 to 50000 nM
Cc1noc(-c2cccc(-c3cccc(C(=O)O)c3)c2)c1NC(=O)OC(C)c1ccccc1Cl (stereo not drawn) [Compound 1-31, 3′-{4-[1-(2-Chloro-phenyl)-ethoxycarbonylamino]-3-methyl-isoxazol-5-yl}-biphenyl-3-carboxylic acid] | 1000 to 50000 nM | 1000 to 50000 nM
Cc1noc(-c2ccc(-c3ccc(CC(=O)O)cn3)cc2)c1NC(=O)OC(C)c1ccccc1Cl (stereo not drawn) [Compound 1-61, [6-(4-{4-[1-(2-Chloro-phenyl)-ethoxycarbonylamino]-3-methyl-isoxazol-5-yl}-phenyl)-pyridin-3-yl]-acetic acid] | < 300 nM | 1000 to 50000 nM
Cc1noc(-c2ccc(-c3ccc(CCC(=O)O)cc3)cc2)c1NC(=O)OC(C)c1ccccc1Cl (stereo not drawn) [Compound 1-62, 3-(4′-{4-[1-(2-Chloro-phenyl)-ethoxycarbonylamino]-3-methyl-isoxazol-5-yl}-biphenyl-4-yl)-propionic acid] | < 300 nM | 1000 to 50000 nM
Cc1noc(-c2ccc(-c3cccc(CC(=O)O)c3)cc2)c1NC(=O)OC(C)c1ccccc1Cl (stereo not drawn) [Compound 1-59, (4′-{4-[1-(2-Chloro-phenyl)-ethoxycarbonylamino]-3-methyl-isoxazol-5-yl}-biphenyl-3-yl)-acetic acid] | < 300 nM | 1000 to 50000 nM
Cc1noc(-c2ccc(-c3ccc(Cc4nn[nH]n4)cc3)cc2)c1NC(=O)O[C@H](C)c1ccccc1Cl [Compound 2-5, {3-Methyl-5-[4′-(2H-tetrazol-5-ylmethyl)-biphenyl-4-yl]-isoxazol-4-yl}-carbamic acid (R)-1-(2-chloro-phenyl)-ethyl ester] | < 300 nM | 1000 to 50000 nM
Cc1noc(-c2ccc(-c3ccc(C(C)C(=O)O)cc3)cc2)c1NC(=O)O[C@H](C)c1ccccc1Cl (stereo partly drawn) [Compound 1-92, 2-(4′-{4-[(R)-1-(2-Chloro-phenyl)-ethoxycarbonylamino]-3-methyl-isoxazol-5-yl}-biphenyl-4-yl)-propionic acid] | < 300 nM | 300 to 1000 nM
Cc1noc(-c2ccc(-c3cncc(CC(=O)O)c3)cc2)c1NC(=O)OC(C)c1ccccc1Cl (stereo not drawn) [Compound 1-63, [5-(4-{4-[1-(2-Chloro-phenyl)-ethoxycarbonylamino]-3-methyl-isoxazol-5-yl}-phenyl)-pyridin-3-yl]-acetic acid] | < 300 nM | 1000 to 50000 nM
Cc1noc(-c2ccc(-c3ccc(CC(=O)O)cc3)cc2)c1NC(=O)OC(C)c1ccccc1Cl (stereo not drawn) [Compound 1-58, (4′-{4-[1-(2-Chloro-phenyl)-ethoxycarbonylamino]-3-methyl-isoxazol-5-yl}-biphenyl-4-yl)-acetic acid] | < 300 nM | 1000 to 50000 nM
Cc1noc(-c2ccc(CS(=O)(=O)c3cccc(CC(=O)O)c3)cc2)c1NC(=O)OC(C)c1ccccc1Cl (stereo not drawn) [Compound 1-98, [3-(4-{4-[1-(2-Chloro-phenyl)-ethoxycarbonylamino]-3-methyl-isoxazol-5-yl}-phenylmethanesulfonyl)-phenyl]acetic acid] | < 300 nM | > 50000 nM
Cc1noc(-c2cccc(C3=CCC(C(=O)O)CC3)c2)c1NC(=O)OC(C)c1ccccc1Cl (stereo not drawn) [Compound 1-45, 4-(3-{4-[1-(2-Chloro-phenyl)-ethoxycarbonylamino]-3-methyl-isoxazol-5-yl}-phenyl)-cyclohex-3-enecarboxylic acid] | < 300 nM | > 50000 nM
Cc1noc(-c2ccc(CS(=O)(=O)c3ccc(CC(=O)O)cc3)cc2)c1NC(=O)OC(C)c1ccccc1Cl (stereo not drawn) [Compound 1-97, [4-(4-{4-[1-(2-Chloro-phenyl)-ethoxycarbonylamino]-3-methyl-isoxazol-5-yl}-phenylmethanesulfonyl)-phenyl]-acetic acid] | < 300 nM | 1000 to 50000 nM

— patent publication US20110301142A1, “ANTAGONISTS OF LYSOPHOSPHATIDIC ACID RECEPTORS” (priority 2008, published 2011)
